According to PubChem BioAssay (NCI):
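96-well plates; 48 h exposure; 5 concentrations. Endpoints by linear interpolation between flanking doses. Not reached: highest tested concentration assigned. At the TGI there is no net growth.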

What was measured:
Assay in all cases: inhibition of tumour cell growth, NCI panel, 48 h
SK-MEL-28 melanoma = system: SK-MEL-28 melanoma
BT-549 breast = system: BT-549 breast
EKVX NSCLC = system: EKVX NSCLC
U251 CNS = system: U251 CNS
UO-31 renal = system: UO-31 renal
NCI-H522 lung = system: NCI-H522 lung
CAKI-1 renal = system: CAKI-1 renal
HOP-92 NSCLC = system: HOP-92 NSCLC
NCI-H23 lung = system: NCI-H23 lung
SF-539 CNS = system: SF-539 CNS
HOP-62 NSCLC = system: HOP-62 NSCLC
786-0 renal = system: 786-0 renal
SN12C renal = system: SN12C renal
MALME-3M melanoma = system: MALME-3M melanoma
HCT-116 colon = system: HCT-116 colon
CCRF-CEM leukemia = system: CCRF-CEM leukemia
SR leukemia = system: SR leukemia
MDA-MB-231 breast = system: MDA-MB-231 breast
A498 renal = system: A498 renal

Row | Compound | TGI (SK-MEL-28 melanoma) [µM] | TGI (BT-549 breast) [µM] | TGI (EKVX NSCLC) [µM] | TGI (U251 CNS) [µM] | TGI (UO-31 renal) [µM] | TGI (NCI-H522 lung) [µM] | TGI (CAKI-1 renal) [µM] | TGI (HOP-92 NSCLC) [µM] | TGI (NCI-H23 lung) [µM] | TGI (SF-539 CNS) [µM] | TGI (HOP-62 NSCLC) [µM] | TGI (786-0 renal) [µM] | TGI (SN12C renal) [µM] | TGI (MALME-3M melanoma) [µM] | TGI (HCT-116 colon) [µM] | TGI (CCRF-CEM leukemia) [µM] | TGI (SR leukemia) [µM] | TGI (MDA-MB-231 breast) [µM] | TGI (A498 renal) [µM]
1 | COc1cc(CNC2=NCCC2)cc(OC)c1OC | > 100 | > 100 | > 100 | > 100 | > 100 | > 100 | > 100 | > 100 | > 100 | > 100 | > 100 | > 100 | > 100 | > 100 | > 100 | > 100 | – | – | –
2 | CC(C)(C)CNC(=O)NCn1cc(-c2ccccc2)nn1 | > 100 | > 100 | > 100 | > 100 | – | > 100 | > 100 | > 100 | > 100 | > 100 | > 100 | > 100 | > 100 | > 100 | > 100 | > 100 | > 100 | > 100 | –
3 | O=C(OC[C@H]1C[C@H]2C(=O)CCC[C@H]2O1)c1ccccc1 | > 100 | – | > 100 | > 100 | > 100 | > 100 | > 100 | > 100 | > 100 | > 100 | > 100 | > 100 | > 100 | – | > 100 | > 100 | > 100 | > 100 | > 100
4 | CCOC(=O)C(=[N+]=[N-])C(=O)CN1C(=O)C2CC(C)=C(C)CC2C1O (configuration not stated) | > 100 | > 100 | > 100 | > 100 | > 100 | > 100 | – | – | > 100 | > 100 | > 100 | > 100 | – | > 100 | > 100 | > 100 | > 100 | – | –
5 | O=C(O)CC1NC(/C(=C/c2ccccc2O)NC(=O)c2ccccc2)OC1=O (configuration not stated) | > 100 | 52 | > 100 | > 80.8 | > 63.6 | > 100 | > 100 | > 100 | > 100 | 66.9 | 29.5 | > 100 | > 100 | > 100 | > 100 | > 100 | – | > 68.3 | > 100
6 | COC1=CC(=O)c2c(cc(COP(=O)(OCC3OC(n4cc(F)c(=O)[nH]c4=O)CC3O)N(C)CCCCCl)n2C)C1=O (configuration not stated) | > 68.8 | > 100 | 26 | 37.7 | > 69.3 | 19.1 | – | 12.3 | 17.7 | – | 26.8 | > 69.2 | 1.84 | 9.97 | 28.5 | > 100 | > 92.7 | 35.8 | –
7 | O=c1cc(N2CCCC2)[nH]c(=O)n1-c1ccc(F)cc1 | > 100 | > 100 | > 100 | > 100 | – | > 100 | > 100 | > 100 | > 100 | > 100 | > 100 | > 100 | > 100 | > 100 | > 100 | > 100 | – | > 100 | > 100
8 | Cc1cc(C)nc(SCC(=O)OC2CC(C)CCC2C(C)C)n1 (configuration not stated) | > 100 | 79.9 | 39.3 | 53.8 | 33.7 | 46 | 48.6 | 67.1 | > 100 | – | 27.2 | 42.6 | 37.2 | 41.1 | 47 | 42.5 | – | 49.7 | 47.2
9 | O=[N+]1ON=C(c2ccccc2)C1=C1C(c2c(-c3ccccc3)no[n+]2[O-])=NON1[O-] | > 100 | – | > 100 | – | 48.6 | > 100 | 56.7 | 70.1 | 20.7 | 73.4 | 55.1 | 31.2 | > 100 | 51.3 | 16.2 | > 100 | > 100 | 95.9 | 43.7
10 | C[n+]1c2ccccc2n2c3ccccc3c(NCCc3ccccn3)c(C#N)c21 | 5.51 | > 23.3 | 19.5 | 12.7 | 6.51 | 3.95 | 6.68 | > 100 | 11 | 12.6 | 11.8 | 7.58 | – | 12 | 11.8 | 9.11 | – | 6.83 | 14
11 | O=C(CC(C(=O)c1cccs1)c1cccs1)c1ccccc1Cl (configuration not stated) | > 100 | – | > 100 | > 100 | > 100 | – | > 100 | – | > 100 | > 100 | > 100 | > 100 | > 100 | > 100 | > 100 | > 100 | > 100 | > 100 | > 100
12 | COc1cc(OC)c2c(=O)c(OC)c(-c3ccc4c(c3)OCO4)oc2c1OC | > 100 | > 100 | > 100 | > 100 | > 100 | > 100 | > 100 | 90.9 | > 100 | > 100 | > 100 | > 100 | > 100 | > 100 | > 100 | 83.5 | – | > 100 | > 100
13 | O=c1c(C2=NCCC2)c(-c2ccc[nH]2)[nH]n1-c1ccccc1 | > 100 | > 100 | > 100 | > 100 | > 100 | > 100 | > 100 | > 100 | > 100 | > 100 | – | > 100 | > 100 | > 100 | > 100 | > 100 | – | > 100 | > 100
